Experimental data reported in paper PMC9570109, “Improved Trimethylangelicin Analogs for Cystic Fibrosis: Design, Synthesis and Preliminary Screening” (International Journal of Molecular Sciences, 2022).
Like-named read-outs stand apart in the source and are kept apart here. Blank lines part the entries; values can stand above or below the compound they belong to.

Assays:
F508del CFTR [1] = biological target: T1, F508del CFTR (Homo sapiens, UniProt P13569, DEL508-508); assay: F508del CFTR functional rescue (corrector) HS-YFP single-cell assay; type: cell-based; settings: CFBE41o- YFP-F508del cells; for F508del CFTR rescue (corrector) activity: 48 h incubation, 200 nM
T1 construct: expressed in transfected cells; host or cells: CFBE41o- cells overexpressing F508del CFTR and HS-YFP (YFP-H148Q/I152L), a gift from N. Pedemonte, Gaslini Institute
Description: To verify the possibility that the title compounds may act as correctors in CFBE41o-, overexpressing F508del and the high sensitivity halide-sensing yellow fluorescent protein (HS-YFP) YFP-H148Q/I152L, we examined the effect of 48 h preincubation with vehicle or the TMA analogs or TMA or VX809 (Lumacaftor), as a positive control.
At the time of the assay, the correction of the F508del-CFTR function was evaluated in single-cell analysis by measuring the decrease in YFP fluorescence after the concomitant addition of extracellular iodide and the activating cocktail (20 μM forskolin and 5 μM VX770), in the presence or absence of the 10 μM CFTR inhibitor, CFTRinh-172. […] At least two derivatives show CFTR activity similar to that of the parent TMA.
The effect of TMA analogs on CFTR function was tested in CFBE41o- overexpressing F508del and the high sensitivity halide-sensing yellow fluorescent protein (HS-YFP) YFP-H148Q/I152L (a generous gift from N. Pedemonte, Gaslini Institute, Genova, Italy). YFP CF cells were seeded on round glass coverslips and preincubated for 48 h with vehicle or test compounds or VX809 or TMA. At the time of the assay, cells were washed in Dulbecco’s PBS (in mM: 137 NaCl, 2.7 KCl, 8.1 Na2HPO4, 1.5 KH2PO4, 1 CaCl2, and 0.5 MgCl2, pH 7.4) and subsequently incubated with a stimulation cocktail (20 μM forskolin and 5 μM VX770) in the presence and absence of 10 μM CFTR inhibitor, CFTRInh-172 (Sigma), for 30 min. The coverslips were then transferred on a Nikon TMD inverted microscope through a Nikon Fluor 40 objective. The signal was acquired with a Hamamatsu C2400–97 charge-coupled intensified video camera at a rate of 1 frame/3 s. The fluorescence coming from every single cell was analyzed by custom software (Spin, Vicenza, Italy). The results are presented as transformed data to obtain the percentage signal variation (Fx) relative to the time of addition of the stimulus, according to the equation: Fx = ([Ft − Fo]/Fo) × 100, where Ft and Fo are the fluorescence values at time t and at the time of stimulus addition, respectively. The assay of each sample consists of a continuous 99-s fluorescence reading with 30 s before and 69 s after injection of the iodide-rich Dulbecco’s PBS (in mM: 137 NaI, 2.7 KCl, 8.1 Na2HPO4, 1.5 KH2PO4, 1 CaCl2, and 0.5 MgCl2, pH 7.4) to reach a final iodide concentration of 50 mM [20]. The different sensitivity of HS-YFP toward iodide and chloride allows assays to be performed by measuring the transport of anions through the plasma membrane as changes in cell fluorescence. For this assay, cells expressing HS-YFP are equilibrated in a physiological chloride-rich saline solution (e.g., Dulbecco’s PBS). During fluorescence reading, cells are exposed to a high concentration of iodide. Iodide influx quenches the cell fluorescence with a rate that depends on the permeability of the cell membrane to halides, and therefore, on the activity of the anion channels or transporters.
Figure 4 Evaluation of different TMA analogs as F508del CFTR correctors in CFBE41o- YFP-F508del cells. Correction of F508del-CFTR function was assessed, in a single cell, by measuring the decrease in YFP fluorescence upon addition of extracellular iodide and with the activating cocktail, in the presence or absence of CFTR inhibitor, CFTRInh-172. Iodide influx was tested under control condition (vehicle) or after 48 h incubation with the correctors 200 nM or 1 μM VX809. The YFP fluorescence decay rate was calculated by fitting the fluorescence data with an exponential function of time courses. CFTR activity was obtained by the difference between the fluorescence decay rate of YFP in the presence and absence of CFTRInh-172. Fluorescence coming from every single cell of at least five cells per field was recorded. Each bar corresponds to the mean ± SEM of data points coming from at least three different experiments (5–10 different cells/each experiment). […]

[2] = In vivo oral pharmacokinetics in mice; settings: c57BL/6 male mice
Description: The main pharmacokinetic parameters of 4-PhDMA, pANDMA, and pANDMA mesylate were evaluated in c57BL/6 male mice, using water as dispersing vehicle.
All experimental procedures involving animals were conducted in accordance with the 3R principle to minimize their pain and discomfort. […] For the PK analysis, C57Bl6 male mice (n = 3 per time point) were gavaged with selected compounds (20 mg/kg), suspended in water, or dissolved in SEDDS formulations, after an overnight fast. […] 8.0 software (GraphPad Software Inc., San Diego, CA, USA), when appropriate. If not otherwise stated, the PK data are expressed as mean ± SD. p < 0.05 was considered statistically significant.
The TMA analogs were extracted and analyzed from mouse plasma as already reported. Briefly, 100 µL of plasma were treated with 300 µL of cold acetonitrile spiked with 80 nM of internal standard (IS, 6,4′-dimethylangelicin), and then the samples were centrifuged for 10 min at 12,000× g (Hettich Mikro 120 Benchtop Centrifuge) and 25 °C. Ten microliters of the supernatant were injected into the UHPLC system.
The analytical column was a Kinetex 2.6 μm C18 Polar, 100 A, 100 × 2.1 mm (Phenomenex, Bologna, Italy), thermostated at 30 °C. The mobile phase components A and B were water and methanol, respectively, both containing 10 mM ammonium formate. The eluent flow rate was 0.25 mL/min. […] MS data were analyzed using the Mass Hunter Qualitative Analysis software (Agilent Technologies, Palo Alto, CA, USA).
Chromatographic peaks of the TMA analog were identified and integrated by considering the Extracted Ion Chromatogram (EIC) of the [M+H]^+ species selected with a window of 5 ppm and normalized by the IS. Quantification of TMA analogs was carried out by external calibration of normalized signals using a seven-point calibration curve obtained by spiking blank plasma with each TMA analog in the range of 20–3000 nM.

HepG2 cells = assay: Cytotoxicity MTT assay on HepG2 cells; settings: HepG2, 24 h, highest concentration tested (50 μM)
Description: The potential toxicity of TMA analogs on hepatic tissue was assessed by evaluating the viability of HepG2 cells (ATCC, HB-8065) using the MTT assay, as previously reported [22]. Cells were maintained in DMEM complete medium (10% FBS, 1% l-glutamine and 1% PEN-STREP) and seeded in a 96-well plate (5 × 10^4 cells/mL). They were treated for 24 h with TMA analogs (concentration range from 3.125 μM to 50 μM). At the end of the treatment, cells were washed and an MTT solution (0.5 mg/mL in complete medium) was added to each well and incubated for 4 h at 37 °C. The solution was discarded, and the produced blue formazan crystals were dissolved with acidified isopropanol (2% HCl). Absorbance was measured at 570 nm using a multiplate reader (Victor Nivo, Perkin Elmer). The percentage of viable cells was calculated considering untreated cells as control.
The data shown in this figure are the results of three independent experiments, each
performed in quadruplicate.

F508del CFTR [3] = biological target: T1, F508del CFTR; set-up: method as in PMID 30022950; settings: nanomolar concentrations; cited from earlier work
[4] = test system: CFTR in FRT-YFP-G551D cells; set-up: method as in PMID 30022950; settings: cited from earlier work
NF-kB/DNA interactions = test system: NF-kB/DNA interactions; set-up: method as in PMID 29627723; settings: cited from earlier work
[5] = set-up: method as in PMID 29627723; settings: cited from earlier work
salmon testes DNA = assay: Photoadduct formation with DNA under UVA irradiation (TLC analysis); settings: 15 J/cm2 UVA
Description: The total energy that struck the sample was monitored by means of a radiometer (Variocontrol, Waldmann, Villingen-Schwenningen, Germany), equipped with a Variocontrol UV Sensor (Waldmann). The radiant power emitted by the UVA lamp was about […]. The samples were maintained at room temperature during irradiation.
The test compounds were dissolved in ethanol (2 mg/mL) and salmon testes DNA (Sigma-Aldrich) was dissolved in 10 mM NaCl and 1 mM EDTA solution (1.5 × 10^−3 M). Each test solution (250 μL) was added dropwise to the DNA solution (5 mL). The mixture was irradiated with 15 J/cm2 UVA light in a glass dish for 1 h. After irradiation, the DNA was precipitated with 1 M NaCl and two volumes of cold ethanol; the precipitated DNA was collected, washed with 80% ethanol, dried, and then dissolved in water. To obtain hydrolysis, the final solution was acidified with 1 M HCl, heated at 100 °C for 1 h, neutralized with NaOH and extracted three times with chloroform. Then, all of the organic layers were collected, dried under a high vacuum, and dissolved in ethanol. The hydrolyzed mixtures were separated by thin layer chromatography (TLC; F254 plates, 0.25 mm, Merck, Darmstadt, Germany) eluting with EtOAc/EtOH (9:1). The plates were analyzed with a Mineral Light Lamp VL-4LC VILBERT-LOURMAT (Vilber, Marne-la-Vallée, France).

[6] = mouse, plasma, po, 20 mg/kg gavage, in water

T1 sequence (P13569 with tags, fused parts or gaps DEL508-508): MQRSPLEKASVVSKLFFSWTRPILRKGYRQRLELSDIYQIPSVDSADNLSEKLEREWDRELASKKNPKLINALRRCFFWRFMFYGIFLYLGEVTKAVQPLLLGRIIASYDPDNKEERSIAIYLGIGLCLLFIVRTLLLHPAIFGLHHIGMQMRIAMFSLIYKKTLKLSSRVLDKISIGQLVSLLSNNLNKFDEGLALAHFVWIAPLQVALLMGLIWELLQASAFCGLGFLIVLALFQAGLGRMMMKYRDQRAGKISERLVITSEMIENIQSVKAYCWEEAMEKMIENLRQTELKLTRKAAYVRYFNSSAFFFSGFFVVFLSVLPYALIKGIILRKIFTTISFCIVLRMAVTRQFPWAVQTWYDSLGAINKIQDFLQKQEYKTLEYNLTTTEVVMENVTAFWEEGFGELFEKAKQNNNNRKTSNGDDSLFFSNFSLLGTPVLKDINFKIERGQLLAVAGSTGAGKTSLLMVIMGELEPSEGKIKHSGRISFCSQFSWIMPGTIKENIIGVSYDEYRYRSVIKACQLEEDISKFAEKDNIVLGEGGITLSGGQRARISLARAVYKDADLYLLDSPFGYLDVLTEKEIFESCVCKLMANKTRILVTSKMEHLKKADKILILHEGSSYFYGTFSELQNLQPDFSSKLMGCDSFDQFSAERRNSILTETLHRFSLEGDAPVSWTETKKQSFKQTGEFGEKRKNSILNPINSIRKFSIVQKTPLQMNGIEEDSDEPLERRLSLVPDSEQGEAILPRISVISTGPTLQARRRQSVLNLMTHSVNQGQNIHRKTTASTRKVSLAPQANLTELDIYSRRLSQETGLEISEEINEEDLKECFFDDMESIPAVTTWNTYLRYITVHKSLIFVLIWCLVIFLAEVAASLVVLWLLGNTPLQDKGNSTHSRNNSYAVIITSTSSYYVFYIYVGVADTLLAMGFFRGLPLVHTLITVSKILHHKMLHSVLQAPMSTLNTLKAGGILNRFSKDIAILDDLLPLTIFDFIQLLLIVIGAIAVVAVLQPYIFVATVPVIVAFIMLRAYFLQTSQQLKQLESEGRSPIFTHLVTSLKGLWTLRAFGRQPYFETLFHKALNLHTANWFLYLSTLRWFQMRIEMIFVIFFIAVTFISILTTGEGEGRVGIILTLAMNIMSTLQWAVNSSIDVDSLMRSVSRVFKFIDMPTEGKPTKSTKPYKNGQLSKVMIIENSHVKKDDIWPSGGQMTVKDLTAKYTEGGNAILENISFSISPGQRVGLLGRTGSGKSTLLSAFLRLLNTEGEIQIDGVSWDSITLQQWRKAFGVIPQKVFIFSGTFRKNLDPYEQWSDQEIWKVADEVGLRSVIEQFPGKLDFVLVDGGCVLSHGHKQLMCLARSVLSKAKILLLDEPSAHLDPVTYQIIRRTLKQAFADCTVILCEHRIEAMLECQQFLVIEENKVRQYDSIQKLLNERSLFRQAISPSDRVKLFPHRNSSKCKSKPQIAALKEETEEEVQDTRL

SMILES: Cc1cc(=O)oc2c1cc(-c1ccncc1)c1occ(C)c12 [PyDMA]
F508del CFTR rescue (corrector) activity (F508del CFTR [1]): inactive

SMILES: CS(=O)(=O)O.Cc1cc(=O)oc2c1cc(-c1ccc(N)cc1)c1occ(C)c12 [pANDMA mesylate]
reduction in YFP fluorescence induced by iodide influx compared to vehicle (F508del CFTR [1]; 48 h treatment, representative time courses): greater reduction in YFP fluorescence
AUC 0-inf ([2]; 20 mg/kg gavage, in water): 9.4026 ± 0.7422 µM·h
CL/F ([2]; 20 mg/kg gavage, in water): 0.0091 ± 0.0002 mL/h/g
Cmax ([2]; 20 mg/kg gavage, in water): 3870 ± 1070 nM
Tmax ([2]; 20 mg/kg gavage, in water): 0.375 ± 0.177 h
t1/2 ([2]; 20 mg/kg gavage, in water): 1.87 ± 0.43 h
bioavailability relative to pANDMA ([2]; water as vehicle): nearly four-times more bioavailable
cell viability (HepG2 cells): greater than 75%

SMILES: CCc1cc2c(-c3ccccc3)cc(=O)oc2c2c(C)coc12 [4-PhEMA]
F508del CFTR rescue (corrector) activity (F508del CFTR [1]): inactive

SMILES: CCc1cc2c(C(C)C)cc(=O)oc2c2c(C)coc12 [IPEMA, 4-isopropyl-6-ethyl-4′-methylangelicin]
CL/F ([2]; 20 mg/kg gavage, in water): 0.0633 ± 0.005 mL/h/g
oral bioavailability ([2]; water as vehicle): very low
Cmax [2, 6]: 120 ± 55.3 nM
half-life [2, 6]: 9.01 ± 1.34 h
AUC 0-inf ([2]; mouse, plasma, po, 20 mg/kg gavage, in water, read-out: AUC 0-inf): 0.395 ± 0.0987 µM·h
Tmax ([2]; mouse, plasma, po, 20 mg/kg gavage, in water, read-out: Tmax): 1 h
rescue of F508del CFTR-dependent chloride efflux (F508del CFTR [3]): significantly rescued
potentiation activity of CFTR [4]: maintained the potentiation activity
inhibitory activity on NF-kB/DNA interactions (NF-kB/DNA interactions): TMA-like inhibitory activity
mutagenicity and DNA damaging properties [5]: lacking mutagenicity and DNA damaging properties

SMILES: Cc1cc(=O)oc2c1cc(C)c1occ(C)c12 [TMA, 4,6,4′-trimethylangelicin, reference compound]
photoadduct formation with DNA upon UVA irradiation (salmon testes DNA): showed photoadducts

SMILES: Cc1cc(=O)oc2c1cc(-c1cccc(N)c1)c1occ(C)c12 [mANDMA]
F508del CFTR rescue (corrector) activity (F508del CFTR [1]): inactive

Next, values leading:

F508del CFTR rescue (corrector) activity (F508del CFTR [1]): inactive
SMILES: Cc1cc(=O)oc2c1cc(-c1cccs1)c1occ(C)c12 [ThiDMA]

F508del CFTR rescue (corrector) activity (F508del CFTR [1]): inactive
SMILES: Cc1coc2c(-c3ccccc3)cc3c(C(C)C)cc(=O)oc3c12 [IPPhMA]

F508del CFTR rescue (corrector) activity (F508del CFTR [1]): inactive
SMILES: Cc1coc2c(-c3ccccc3)cc3c(C4CC4)cc(=O)oc3c12 [CPPhMA]
